According to paper PMC10770036, “Novel dual inhibitors of PARP and HDAC induce intratumoral STING-mediated antitumor immunity in triple-negative breast cancer” (Cell Death & Disease, 2024):

System: 4T1 tumors
Assay: Combination with anti-PD-L1 in syngeneic murine 4T1 model
Format: in vivo, mice
Settings: syngeneic 4T1 model; B102 15 mg/kg or B302 50 mg/kg every 2 days; anti-PD-L1 100 μg every 5 days; intraperitoneal
Source text: MDA-MB-436 cells (5 × 10^6) were suspended in PBS and Matrigel (Corning) at a 1:1 ratio and orthotopically injected into the fat pads of 6- to 7-week-old female NOD-Prkdc^scid Il2rg^em1Smoc (M-NSG) mice from the Shanghai Model Organisms Center, Inc. MDA-MB-231 cells (5 × 10^6) were suspended in PBS orthotopically injected into the fat pads of 6- to 7-week-old female BALB/c nude mice from the Shanghai Model Organisms Center, Inc. 4T1 cells (1 × 10^6) were suspended in PBS and injected into the fat pads of 6- to 7-week-old male BALB/c mice from GemPharmatech Co., Ltd. […] For the MMTV-PyMT mice, fourteen 6-week-old female mice were randomly divided into two groups, and no blinding was performed. […] For the combination of B102 or B302 and anti-PD-L1 studies, the mice were randomly divided into four treatment groups without blinding: (1) vehicle; (2) B102 (15 mg/kg, every 2 days) or B302 (50 mg/kg, every 2 days); (3) anti-PD-L1 antibodies (100 μg, dissolved in PBS, every 5 days, Atezolizumab, Clone No.: 2B11D11, Shanghai Lollane biological technology Co., Ltd., Shanghai, China); or (4) combination of B102 or B302 and anti-PD-L1, all treatment via an intraperitoneal injection. Tumor size was monitored with a digital caliper, and tumor volume was calculated using the following equation: volume = (length × width^2)/2. […]

anti-PD-L1: anti-PD-L1 antibodies (Atezolizumab, Clone No.: 2B11D11), immune checkpoint blockade
tumor growth: restricted tumor growth
